Among the test systems are OVCAR-4 ovarian; SK-MEL-28 melanoma; SN12C renal; COLO 205 colon; HCC-2998 colon; MCF7 breast; KM12 colon; HL-60(TB) leukemia; PC-3 prostate; EKVX NSCLC.
Holding throughout (test): NCI anticancer screen, dose series, 48 h

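Results reflect a 48-hour exposure of cells in 96-well plates to compound at five concentrations. Here, GI50 denotes the concentration required for 50% inhibition of growth. TGI: concentration producing complete growth inhibition.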 Where only a bound is given, the exact number is not on record here.

Take `Cc1ccc(Sc2cc3c(oc2=O)-c2ccccc2OC3O)cc1` (centres undefined): the GI50 with OVCAR-4 ovarian was 33.1 µM; in the assay on SK-MEL-28 melanoma, 22.2 µM; with SN12C renal it was 29.4 µM; in the assay on COLO 205 colon it was 15 µM; with HCC-2998 colon, 20.3 µM; in the assay on MCF7 breast it was 35.9 µM. Moreover, the GI50 was 21.5 µM in the assay with KM12 colon, 16.6 µM with HL-60(TB) leukemia, 28 µM with PC-3 prostate and 21.9 µM in the assay on EKVX NSCLC. Besides, the TGI is greater than 100 µM in the assay on OVCAR-4 ovarian; 57.9 µM in the assay with SK-MEL-28 melanoma; 73.3 µM in the assay with SN12C renal; 36.5 µM in the assay on COLO 205 colon; 36.6 µM with HCC-2998 colon; greater than 100 µM in the assay with MCF7 breast. In addition, the TGI worked out at 49.7 µM in the assay on KM12 colon, 37.1 µM with HL-60(TB) leukemia, 76.5 µM in the assay on PC-3 prostate and 43.9 µM with EKVX NSCLC.
Turning to `CC(C)=CCCC(C)C1=C(O)C(=O)C(C)=CC1=O` (centres undefined), the TGI was 17.4 µM with OVCAR-4 ovarian; greater than 42.4 µM with SK-MEL-28 melanoma; 34.6 µM in the assay with SN12C renal; 18.2 µM in the assay on COLO 205 colon; 27.9 µM in the assay with HCC-2998 colon; 31.1 µM in the assay with MCF7 breast. The TGI in the assay with KM12 colon was 34.6 µM; in the assay on HL-60(TB) leukemia, 0.586 µM; in the assay on PC-3 prostate it was 33 µM; in the assay with EKVX NSCLC, greater than 49.8 µM.
As for `O=C1OCC2=C1C(c1ccccc1)c1cc3c(cc1N2CCO)OCCO3` (centres undefined), the GI50 is 0.587 µM with OVCAR-4 ovarian; 8.24 µM with SK-MEL-28 melanoma; 4.46 µM with SN12C renal; 0.24 µM with COLO 205 colon; 0.182 µM with HCC-2998 colon; 0.175 µM with MCF7 breast. Besides, the GI50 in the assay on KM12 colon is 0.207 µM; with HL-60(TB) leukemia it was 0.118 µM; with PC-3 prostate, 0.182 µM; in the assay on EKVX NSCLC, 0.962 µM. In addition, the TGI in the assay on OVCAR-4 ovarian was greater than 50 µM; with SK-MEL-28 melanoma, greater than 50 µM; with SN12C renal, greater than 50 µM; in the assay on COLO 205 colon it was 0.978 µM; in the assay with HCC-2998 colon, 0.722 µM; with MCF7 breast it was 48.6 µM. Moreover, the TGI with KM12 colon is 6.19 µM; with HL-60(TB) leukemia, 0.406 µM; with PC-3 prostate it was greater than 50 µM; with EKVX NSCLC, greater than 50 µM.
With `Cc1coc2c1C(OC(=O)C(C)C)C1(C)C(C)CCC(O)C1C2=O` (centres undefined), the TGI with OVCAR-4 ovarian, in the assay with SK-MEL-28 melanoma, with SN12C renal, in the assay with COLO 205 colon, with HCC-2998 colon and with MCF7 breast was greater than 100 µM each time. Besides, the TGI in the assay with KM12 colon, in the assay on HL-60(TB) leukemia, in the assay on PC-3 prostate and in the assay on EKVX NSCLC was greater than 100 µM each time.
Regarding `CCN(CC)C(=S)[S][Bi]([S]C(=S)N(CC)CC)[S]C(=S)N(CC)CC`, the GI50 was 0.165 µM with OVCAR-4 ovarian; 0.218 µM in the assay with SK-MEL-28 melanoma; 0.264 µM with SN12C renal; less than 0.0208 µM with COLO 205 colon; 1.6 µM in the assay on HCC-2998 colon; 0.119 µM with MCF7 breast. In addition, the GI50 was 1.61 µM with KM12 colon, 0.127 µM in the assay with HL-60(TB) leukemia, 0.263 µM in the assay with PC-3 prostate and 0.282 µM in the assay on EKVX NSCLC. Moreover, the TGI was 0.31 µM in the assay with OVCAR-4 ovarian; 0.492 µM in the assay on SK-MEL-28 melanoma; 0.696 µM in the assay on SN12C renal; 0.131 µM in the assay with COLO 205 colon; 3.02 µM in the assay on HCC-2998 colon; 0.349 µM with MCF7 breast. The TGI in the assay with KM12 colon turned out to be 3.1 µM; with HL-60(TB) leukemia, 19.9 µM; with PC-3 prostate, 1.04 µM; in the assay with EKVX NSCLC, 0.732 µM.
For `CN(C)CCCn1c(-c2nonc2N)nc2cnccc21`, the GI50 in the assay on OVCAR-4 ovarian, with SK-MEL-28 melanoma, in the assay with SN12C renal, in the assay with COLO 205 colon, in the assay with HCC-2998 colon and in the assay on MCF7 breast was greater than 25 µM in each case. Further, the GI50 in the assay on KM12 colon, with HL-60(TB) leukemia, in the assay on PC-3 prostate and in the assay on EKVX NSCLC was greater than 25 µM each time. Moreover, the TGI with OVCAR-4 ovarian, in the assay on SK-MEL-28 melanoma, in the assay on SN12C renal, with COLO 205 colon, with HCC-2998 colon and with MCF7 breast was greater than 25 µM throughout. Further, the TGI with KM12 colon, with HL-60(TB) leukemia, with PC-3 prostate and in the assay on EKVX NSCLC was greater than 25 µM in each case.
On to `CCCCCCCCCCCCCCCCCC(=O)Nc1ccn(C2OC(CO)C(O)C2O)c(=O)n1` (centres undefined), for which the TGI with OVCAR-4 ovarian, in the assay with SK-MEL-28 melanoma, in the assay with SN12C renal, in the assay on COLO 205 colon, in the assay on HCC-2998 colon and in the assay on MCF7 breast was greater than 100 µM throughout. The TGI with KM12 colon was greater than 100 µM; in the assay with HL-60(TB) leukemia, 41.8 µM; with PC-3 prostate it was greater than 100 µM; in the assay with EKVX NSCLC, greater than 100 µM.
Take `CCSc1ccc(C2C(Br)C(=O)N2c2cc(OC)c(OC)c(OC)c2)cc1` (centres undefined): the GI50 in the assay on OVCAR-4 ovarian was 1.43 µM; with SK-MEL-28 melanoma, 1.94 µM; in the assay on SN12C renal, 0.925 µM; in the assay on COLO 205 colon, 0.23 µM; in the assay with HCC-2998 colon, 0.673 µM; with MCF7 breast, 0.0447 µM. Also, the GI50 in the assay with KM12 colon was 0.202 µM; in the assay on HL-60(TB) leukemia it was 0.214 µM; in the assay with PC-3 prostate, 0.297 µM; in the assay on EKVX NSCLC, 0.639 µM. Besides, the TGI amounted to 40.5 µM in the assay on OVCAR-4 ovarian; 30 µM in the assay with SK-MEL-28 melanoma; 21 µM with SN12C renal; 0.823 µM with COLO 205 colon; 29.1 µM in the assay on HCC-2998 colon; 17 µM in the assay on MCF7 breast. Besides, the TGI in the assay on KM12 colon was greater than 100 µM; in the assay on HL-60(TB) leukemia, 0.527 µM; with PC-3 prostate it was greater than 100 µM; with EKVX NSCLC it was greater than 100 µM.
Turning to `C[C@@H]1COCCN1c1cc(C2(O)C[C@H]3CC[C@@H](C2)O3)c2cnn(-c3ccn[nH]3)c2n1` (some centres undefined), the GI50 in the assay on OVCAR-4 ovarian was 0.0397 µM; with SK-MEL-28 melanoma, 0.251 µM; in the assay on SN12C renal it was 0.143 µM; with COLO 205 colon, 0.253 µM; in the assay with HCC-2998 colon, less than 0.0113 µM; in the assay on MCF7 breast, less than 0.0106 µM. The GI50 with KM12 colon was 0.167 µM; in the assay on HL-60(TB) leukemia, 0.172 µM; in the assay with PC-3 prostate, 0.277 µM; in the assay on EKVX NSCLC, 0.139 µM. Also, the TGI with OVCAR-4 ovarian came out at 0.419 µM; with SK-MEL-28 melanoma, 2.1 µM; with SN12C renal, 4.09 µM; in the assay with COLO 205 colon it was 2.52 µM; in the assay on HCC-2998 colon it was 0.229 µM; in the assay on MCF7 breast it was 1.38 µM. For the same compound, the TGI in the assay on KM12 colon came out at 9.73 µM; in the assay on PC-3 prostate it was 24.4 µM; in the assay on EKVX NSCLC, 0.845 µM.

The record behind these values is PubChem BioAssay (NCI).
